Data as given in publication PMC10656490, “Sequence-based prediction of the intrinsic solubility of peptides containing non-natural amino acids” (Nature Communications, 2023).
Like-named read-outs stand apart in the source and are kept apart here. Where a SMILES comes first, the peptide text is derived from it. [ ]: non-standard residue; d: D form. Cha = N[C@@H](CC1CCCCC1)C(=O)O; Cit = NC(=O)NCCC[C@H](N)C(=O)O; Nle = CCCC[C@H](N)C(=O)O; Aib = CC(C)(N)C(=O)O

Assays:
[1] = Ammonium sulphate (AMS) precipitation relative solubility assay (18 A variants); format: physicochemical; conditions: for PEG1/2 / Second Run: 18A variants; for PEG1/2: Figure 3b; for Second Run: precipitation midpoint, Figure S3
Procedure: (§1) Relative solubility was measured using a recently developed PEG precipitation assay. For all PYY variants the standard assay worked well, and no changes had to be implemented (Fig. 2a). […] Moreover, to ensure that the results stemming from the AMS assay are consistent and reliable, we performed the 18 A experiments twice independently on different days. The results confirmed that they are indeed replicable, and we were therefore confident to use them for the validation of our approach (Supplementary Fig. 3). […] Even at final concentrations of 0.33 mg/mL (instead of 1 mg/mL) most variants remained insoluble. We used ultracentrifugation to determine the relative solubilities of the GLP-1 variants (Table 3). To confirm the reliability of this method we replicated the results on a different day with the same stock solutions (Supplementary Fig. 4).
(§2) Aliquots of 1 mg were prepared from the purified and lyophilised stocks. […] Briefly, a precipitant is titrated in increasing concentration to a fixed concentration of protein to induce precipitation of the protein. The samples are incubated for 48 h at 4° after mixing. The samples are centrifuged and the remaining protein concentration is measured in the supernatant using a plate reader. PYY and 18 A variants were dissolved in 10 mM citrate 10 mM phosphate buffer at pH 7 for a final concentration of 3 mg/mL. The assay was run with 50% 6000 PEG for PYY and with 3.8 M AMS for 18 A. To improve throughput, a multichannel robot was employed to measure several peptides at once with the workflow being kept the same as described previously. […] 120 µL of each sample were centrifuged using an OptimaTLX Ultracentrifuge and spinning for 30 min at 500,000 g at 4 °C. The supernatant was removed, and the peptide concentration was measured using a NanoDrop.

[2] = Solubility by ultracentrifugation (GLP-1 variants); format: physicochemical; conditions: for solubility: 10 mM citrate 10 mM phosphate buffer, pH 7, GLP-1 variants, 2 mg/mL in 10 mM citrate 10 mM phosphate pH 7, 30 min 500,000 g 4 °C
Procedure: as §1, §2

[3] = run 1, read-out: Run 1 solubility (peptide concentration in supernatant)
[4] = run 2, read-out: Run 2 solubility (peptide concentration in supernatant)
[5] = GLP1 variants, Figure 3c, in mg/mL
[6] = source data Supplementary Fig. 4, GLP-1 variants, 2 stands where Table 3 prints S, in mg/mL

| PEG1/2 [1] | Second Run [1] | solubility [2, 3] | solubility [2, 4] | Ultracentrifugation [2, 5] | First Run [2, 6] | Second Run [2, 6] | other results | Compound |
| --- | --- | --- | --- | --- | --- | --- | --- | --- |
| 1.618 | 0.923 | – | – | – | – | – | – | CCCC[C@H](NC(=O)[C@@H](NC(=O)[C@H](CCCCN)NC(=O)[C@H](CC(=O)O)NC(=O)[C@H](Cc1ccc(O)cc1)NC(=O)[C@H](Cc1ccccc1)NC(=O)[C@H](C)NC(=O)[C@H](CCCCN)NC(=O)[C@H](Cc1ccccc1)NC(=O)[C@H](Cc1c[nH]c2ccccc12)NC(=O)[C@H](CC(=O)O)NC(C)=O)C(C)C)C(=O)N[C@@H](CCC(=O)O)C(=O)N[C@@H](CCCCN)C(=O)N[C@@H](Cc1ccccc1)C(=O)N[C@@H](CCCCN)C(=O)N[C@@H](CCC(=O)O)C(=O)N[C@@H](C)C(=O)N[C@@H](Cc1ccccc1)C(N)=O [Compound 13] (Ac-DWFKAFYDKV[Nle]EKFKEAF-NH2) |
| 1.604 | 1.21 | – | – | – | – | – | – | CC(=O)N[C@@H](CC(=O)O)C(=O)N[C@@H](Cc1c[nH]c2ccccc12)C(=O)N[C@@H](Cc1ccccc1)C(=O)NC(C)(C)C(=O)N[C@@H](C)C(=O)N[C@@H](Cc1ccccc1)C(=O)N[C@@H](Cc1ccc(O)cc1)C(=O)N[C@@H](CC(=O)O)C(=O)N[C@@H](CCCCN)C(=O)N[C@H](C(=O)N[C@@H](C)C(=O)N[C@@H](CCC(=O)O)C(=O)N[C@@H](CCCCN)C(=O)N[C@@H](CC1CCCCC1)C(=O)N[C@@H](CCCCN)C(=O)N[C@@H](CCC(=O)O)C(=O)N[C@@H](C)C(=O)N[C@@H](Cc1ccccc1)C(N)=O)C(C)C [Aib, Cha] (Ac-DWF[Aib]AFYDKVAEK[Cha]KEAF-NH2) |
| – | – | – | – | – | – | – | solubility of 18 A variants (in words) ([1]; 18 A variants, pH 7): completely insoluble | CC(=O)N[C@@H](CC(=O)O)C(=O)N[C@@H](Cc1c[nH]c2ccccc12)C(=O)N[C@@H](CC1CCCCC1)C(=O)N[C@@H](CCCCN)C(=O)N[C@@H](C)C(=O)N[C@@H](Cc1ccccc1)C(=O)N[C@@H](Cc1ccc(O)cc1)C(=O)N[C@@H](CC(=O)O)C(=O)N[C@@H](CCCCN)C(=O)N[C@H](C(=O)N[C@@H](CC1CCCCC1)C(=O)N[C@@H](CCC(=O)O)C(=O)N[C@@H](CCCCN)C(=O)N[C@@H](Cc1ccccc1)C(=O)N[C@@H](CCCCN)C(=O)N[C@@H](CCC(=O)O)C(=O)N[C@@H](C)C(=O)N[C@@H](Cc1ccccc1)C(N)=O)C(C)C [Compound 17, [ntDAC]W[CHA]KAFYDKV[CHA]EKFKEA[ctFAD]] (Ac-DW[Cha]KAFYDKV[Cha]EKFKEAF-NH2) |
| – | – | 90 µg/mL | 70 µg/mL | 0.08054 | 0.09475 | 0.06633 | – | CC[C@H](C)[C@H](NC(=O)[C@H](Cc1ccccc1)NC(=O)[C@H](CCC(=O)O)NC(=O)[C@H](CCCCN)NC(=O)[C@H](C)NC(=O)C(C)(C)NC(=O)[C@H](CCC(N)=O)NC(=O)CNC(=O)[C@H](CCC(=O)O)NC(=O)[C@H](CC(C)C)NC(=O)[C@H](Cc1ccc(O)cc1)NC(=O)[C@H](CO)NC(=O)[C@H](CO)NC(=O)[C@@H](NC(=O)[C@H](CC(=O)O)NC(=O)[C@H](CO)NC(=O)[C@@H](NC(=O)[C@H](Cc1ccccc1)NC(=O)[C@@H](NC(=O)CNC(=O)[C@H](CCC(=O)O)NC(=O)[C@H](C)NC(=O)[C@@H](N)Cc1c[nH]cn1)[C@@H](C)O)[C@@H](C)O)C(C)C)C(=O)N[C@@H](C)C(=O)N[C@@H](Cc1c[nH]c2ccccc12)C(=O)N[C@@H](CC(C)C)C(=O)N[C@H](C(=O)N[C@@H](CCCCN)C(=O)NCC(=O)N[C@@H](CCCNC(=N)N)C(N)=O)C(C)C [Compound 5] (H-HAEGTFTSDVSSYLEGQ[Aib]AKEFIAWLVKGR-NH2; N-terminus assumed) |
| – | – | > 2000 µg/mL | > 2000 µg/mL | 2 | 2 | 2 | – | CC[C@H](C)[C@H](NC(=O)[C@H](Cc1ccccc1)NC(=O)[C@H](CCC(=O)O)NC(=O)[C@H](CCCCN)NC(=O)[C@H](C)NC(=O)[C@H](CCCCNC(C)=O)NC(=O)[C@H](CCC(N)=O)NC(=O)CNC(=O)[C@H](CCC(=O)O)NC(=O)[C@H](CC(C)C)NC(=O)[C@H](Cc1ccc(O)cc1)NC(=O)[C@H](CO)NC(=O)[C@H](CO)NC(=O)[C@@H](NC(=O)[C@H](CC(=O)O)NC(=O)[C@H](CO)NC(=O)[C@@H](NC(=O)[C@H](Cc1ccccc1)NC(=O)[C@@H](NC(=O)CNC(=O)[C@H](CCC(=O)O)NC(=O)[C@H](C)NC(=O)[C@@H](N)Cc1c[nH]cn1)[C@@H](C)O)[C@@H](C)O)C(C)C)C(=O)N[C@@H](C)C(=O)N[C@@H](Cc1c[nH]c2ccccc12)C(=O)N[C@@H](CC(C)C)C(=O)N[C@H](C(=O)N[C@@H](CCCCN)C(=O)NCC(=O)N[C@@H](CCCNC(=N)N)C(N)=O)C(C)C [Compound 4] (H-HAEGTFTSDVSSYLEGQK(Ac)AKEFIAWLVKGR-NH2; N-terminus assumed) |
| 1.287 | 0.527 | – | – | – | – | – | – | CC(=O)NCCCC[C@H](NC(=O)[C@@H](NC(=O)[C@H](CCCCN)NC(=O)[C@H](CC(=O)O)NC(=O)[C@H](Cc1ccc(O)cc1)NC(=O)[C@H](Cc1ccccc1)NC(=O)[C@H](C)NC(=O)[C@H](CCCCN)NC(=O)[C@H](Cc1ccccc1)NC(=O)[C@H](Cc1c[nH]c2ccccc12)NC(=O)[C@H](CC(=O)O)NC(C)=O)C(C)C)C(=O)N[C@@H](CCC(=O)O)C(=O)N[C@@H](CCCCN)C(=O)N[C@@H](Cc1ccccc1)C(=O)N[C@@H](CCCCN)C(=O)N[C@@H](CCC(=O)O)C(=O)N[C@@H](C)C(=O)N[C@@H](Cc1ccccc1)C(N)=O [Compound 14] (Ac-DWFKAFYDKVK(Ac)EKFKEAF-NH2) |
| – | – | 150 µg/mL | 120 µg/mL | 0.1367 | 0.15 | 0.1234 | – | CCCC[C@H](NC(=O)[C@H](CCC(=O)O)NC(=O)[C@H](C)NC(=O)[C@@H](N)Cc1c[nH]cn1)C(=O)N[C@H](C(=O)N[C@@H](Cc1ccccc1)C(=O)N[C@H](C(=O)N[C@@H](CO)C(=O)N[C@@H](CC(=O)O)C(=O)N[C@H](C(=O)N[C@@H](CO)C(=O)N[C@@H](CO)C(=O)N[C@@H](Cc1ccc(O)cc1)C(=O)N[C@@H](CC(C)C)C(=O)N[C@@H](CCC(=O)O)C(=O)NCC(=O)N[C@@H](CCCNC(N)=O)C(=O)N[C@@H](C)C(=O)N[C@@H](C)C(=O)N[C@@H](CCCCN)C(=O)N[C@@H](CCC(=O)O)C(=O)N[C@@H](Cc1ccccc1)C(=O)N[C@H](C(=O)N[C@@H](C)C(=O)N[C@@H](Cc1c[nH]c2ccccc12)C(=O)N[C@@H](CC(C)C)C(=O)N[C@H](C(=O)N[C@@H](CCCCN)C(=O)NCC(=O)N[C@@H](CCCNC(=N)N)C(N)=O)C(C)C)[C@@H](C)CC)C(C)C)[C@@H](C)O)[C@@H](C)O [Compound 10] (H-HAE[Nle]TFTSDVSSYLEG[Cit]AAKEFIAWLVKGR-NH2; N-terminus assumed) |
| – | – | – | – | – | – | – | First Run [2]: 0; Second Run [2]: 0; Ultracentrifugation [2]: 0 | HAEGTFTS[CHA]VSSYLEGQAAK[NAC]FIAWLVKGR [Compound 9] |
| – | – | 90 µg/mL | 160 µg/mL | 0.1242 | 0.086 | 0.1624 | – | CCCC[C@H](NC(=O)[C@H](CCC(N)=O)NC(=O)CNC(=O)[C@H](CCC(=O)O)NC(=O)[C@H](CC(C)C)NC(=O)[C@H](Cc1ccc(O)cc1)NC(=O)[C@H](CO)NC(=O)[C@H](CO)NC(=O)[C@@H](NC(=O)[C@H](CC(=O)O)NC(=O)[C@H](CO)NC(=O)[C@@H](NC(=O)[C@H](Cc1ccccc1)NC(=O)[C@@H](NC(=O)CNC(=O)[C@H](CCC(=O)O)NC(=O)[C@H](C)NC(=O)[C@@H](N)Cc1c[nH]cn1)[C@@H](C)O)[C@@H](C)O)C(C)C)C(=O)N[C@@H](C)C(=O)N[C@@H](CCCCN)C(=O)N[C@@H](CCC(=O)O)C(=O)N[C@@H](Cc1ccccc1)C(=O)N[C@H](C(=O)N[C@@H](C)C(=O)N[C@@H](Cc1c[nH]c2ccccc12)C(=O)N[C@@H](CC(C)C)C(=O)N[C@H](C(=O)N[C@@H](CCCCN)C(=O)NCC(=O)N[C@@H](CCCNC(=N)N)C(N)=O)C(C)C)[C@@H](C)CC [Compound 3] (H-HAEGTFTSDVSSYLEGQ[Nle]AKEFIAWLVKGR-NH2; N-terminus assumed) |
| – | – | – | – | 0 | 0 | 0 | – | CC[C@H](C)[C@H](NC(=O)[C@H](Cc1ccccc1)NC(=O)[C@H](CCC(=O)O)NC(=O)[C@H](CCCCN)NC(=O)[C@H](C)NC(=O)[C@H](CC1CCCCC1)NC(=O)[C@H](CCC(N)=O)NC(=O)CNC(=O)[C@H](CCC(=O)O)NC(=O)[C@H](CC(C)C)NC(=O)[C@H](Cc1ccc(O)cc1)NC(=O)[C@H](CO)NC(=O)[C@H](CO)NC(=O)[C@@H](NC(=O)[C@H](CC(=O)O)NC(=O)[C@H](CO)NC(=O)[C@@H](NC(=O)[C@H](Cc1ccccc1)NC(=O)[C@@H](NC(=O)CNC(=O)[C@H](CCC(=O)O)NC(=O)[C@H](C)NC(=O)[C@@H](N)Cc1c[nH]cn1)[C@@H](C)O)[C@@H](C)O)C(C)C)C(=O)N[C@@H](C)C(=O)N[C@@H](Cc1c[nH]c2ccccc12)C(=O)N[C@@H](CC(C)C)C(=O)N[C@H](C(=O)N[C@@H](CCCCN)C(=O)NCC(=O)N[C@@H](CCCNC(=N)N)C(N)=O)C(C)C [Compound 2] (H-HAEGTFTSDVSSYLEGQ[Cha]AKEFIAWLVKGR-NH2; N-terminus assumed) |
